Where a name gives a salt, the structure may show the parent alone. Read-outs that look alike come from different tables or passages of the source.
Columns and labels:
in vivo = settings: rat, in vivo, po
Protocol: (§1) In the present study the test compounds were administered perorally by means of a stomach tube as an aqueous suspension in 5% acacia gum at a constant volume of 10 ml/kg to male Swiss mice and male Sprague-Dawley rats. Control rats and mice were given a corresponding volume of the aqueous suspension medium.
(§2) The acute toxicity was determined on groups of 10 rats treated orally with 500, 1000, 1500 and 2000 mg/kg of the test compound by means of a stomach tube.

rats [1] = assay: in vivo
Protocol: as §1, §2

rats [2] = format: in vivo, male Sprague-Dawley rats; settings: 40 mg/kg oral
Protocol: as §1, with “medium. The results were statistically evaluated by Dunnett's test (C. V. Dunnett.: J.A. Stat. Ass., 40, 1096, 1955).” for “medium.”
1. Anti-inflammatory activity
The anti-inflammatory activity was determined in the carrageenin edema test according to Winter et al., (see C. A. Winter, E. A. Risley, G. W. Muss: J. Pharm. Exp. Ther., 141, 369, 1963).
The edema was provoked in rats by a subplantar injection into the right hind paw of 0.1 ml of a 1% carrageenin suspension in sterile saline solution.
Rats were treated orally with the test compound 60 minutes before the injection of carrageenin. The volume of the foot was measured with a mercury differential volume-meter immediately before injection of the phlogistic agent, and 3 and 5 hours thereafter. The anti-inflammatory activity was evaluated as percent edema inhibition of treated rats in comparison with the controls, according to the following formula: [formula]

| Compound | LD50 at 168 h (in vivo) [mg/kg] | LD50 confidence limits (rats [1]; rat, in vivo, po) [mg/kg] | toxicity compared with prior art compound (rats [1]; summary, Table VII) | Edema volume, mean ± standard deviation (rats [2]; 3 h after carrageenin) [mL] | Edema volume, mean ± standard deviation (rats [2]; 5 h after carrageenin) [mL] |
| --- | --- | --- | --- | --- | --- |
| CC(C)=CCC(C(=O)O)C(=O)N(Nc1ccccc1)c1ccccc1 (centres unmarked) [A, Calcium salt of (3-methyl-2-butenyl)propanedioic acid mono(1,2-diphenylhydrazide)] | 1060 | 721.30 to 1550.51 | less toxic | – | – |
| CCCCC(C(=O)O)C(=O)N(Nc1ccccc1)c1ccccc1 (centres unmarked) [B, Calcium salt of butylpropanedioic acid mono(1,2-diphenylhydrazide), reference compound] | – | – | – | 1.42 ± 0.27 | 2.06 ± 0.42 |

— patent US4301177A, “(3-Methyl-2-butenyl)propanedioic acid mono (1,2-diphenylhydrazide) and salts thereof” (Istituto de Angeli S.p.A., priority 1979, dated 1981)
